From patent US9708314B2, “Heterocyclic amide compound” (NISSAN CHEMICAL INDUSTRIES, LTD., priority 2013, dated 2017)

Legend:
Type in all cases: in vivo
Lolium multiflorum Lam. = experiment: Test Example 4: herbicidal effect by application to foliage (diluvial soil, plastic box); details: application to foliage, application herbicide amount 320 g/ha
Summary of the method: (§1)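 Scores run from 0 (herbicidal ratio ≤5%) to 5 (≥90%, almost fully withered) and were assessed three weeks after foliar spraying. Seedlings had been raised for 14 days at 25-30° C in sterilized diluvial soil before treatment, with the emulsion diluted in water to the stated g/ha dose.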

Amaranthus retroflexus = experiment: as above; details: application to foliage, application herbicide amount 320 g/ha
Summary of the method: as §1

Digitaria ciliaris = experiment: as above; details: application to foliage, application herbicide amount 320 g/ha
Summary of the method: as §1

[1] = test system: Echinochloa crus-galli var. crus-galli; experiment: as above; details: application to foliage, application herbicide amount 320 g/ha
Summary of the method: as §1

Apera spica-venti. = experiment: as above; details: application to foliage, application herbicide amount 320 g/ha
Summary of the method: as §1

Chenopodium album = experiment: as above; details: application to foliage, application herbicide amount 320 g/ha
Summary of the method: as §1

Setaria viridis = experiment: as above; details: application to foliage, application herbicide amount 320 g/ha
Summary of the method: as §1

Avena fatua = experiment: as above; details: application to foliage, application herbicide amount 320 g/ha
Summary of the method: as §1

Galium spurium = experiment: as above; details: application to foliage, application herbicide amount 320 g/ha
Summary of the method: as §1

Stellaria media = experiment: as above; details: application to foliage, application herbicide amount 320 g/ha
Summary of the method: as §1

Abutilon theophrasti = experiment: as above; details: application to foliage, application herbicide amount 320 g/ha
Summary of the method: as §1

Veronica persica = experiment: as above; details: application to foliage, application herbicide amount 320 g/ha
Summary of the method: as §1

Alopecurus myosuroides = experiment: as above; details: application to foliage, application herbicide amount 320 g/ha
Summary of the method: as §1

Cyperus difformis = experiment: Test Example 3: herbicidal effect by application to foliage (Wagner pot, water depth 0.1-0.5 cm); details: Nineteenth Table; application to foliage; application herbicide amount 320 g/ha
Summary of the method: (§2)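 Grading uses six bands of herbicidal ratio, from 0 (≤5%, almost no effect) to 5 (≥90%, almost completely withered). Treatment was a stem-and-leaf spray of diluted emulsion at a fixed g/ha on 14-day-old plants; evaluation after three weeks.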

[2] = test system: Echinochloa crus-galli var. crus-galli; experiment: as above; details: Nineteenth Table; application to foliage; application herbicide amount 320 g/ha
Summary of the method: as §2

Leptochloa chinensis = experiment: as above; details: Nineteenth Table; application to foliage; application herbicide amount 320 g/ha
Summary of the method: as §2

[3] = test system: directly sowed Oryza sativa; experiment: Test Example 3: effect on crop by application to foliage (Wagner pot, water depth 0.1-0.5 cm); details: Nineteenth Table; application to foliage; application herbicide amount 320 g/ha
Summary of the method: as §2

Structure (SMILES) | K: herbicidal effect on Lolium multiflorum Lam. (Lolium multiflorum Lam.) | N: herbicidal effect on Amaranthus retroflexus (Amaranthus retroflexus) | F: herbicidal effect on Digitaria ciliaris (Digitaria ciliaris) | H: herbicidal effect on Echinochloa crus-galli var. crus-galli [1] | L: herbicidal effect on Apera spica-venti. (Apera spica-venti.) | O: herbicidal effect on Chenopodium album (Chenopodium album) | G: herbicidal effect on Setaria viridis (Setaria viridis) | I: herbicidal effect on Avena fatua (Avena fatua) | Q: herbicidal effect on Galium spurium (Galium spurium) | P: herbicidal effect on Stellaria media (Stellaria media) | M: herbicidal effect on Abutilon theophrasti (Abutilon theophrasti) | R: herbicidal effect on Veronica persica (Veronica persica) | J: herbicidal effect on Alopecurus myosuroides (Alopecurus myosuroides) | E (herbicidal effect grade) (Cyperus difformis) | H (herbicidal effect grade) [2] | D (herbicidal effect grade) (Leptochloa chinensis) | b (effect on crop grade) [3]
Cn1nnnc1NC(=O)c1ccc(C(F)(F)F)n2cnnc12 [2-001] | 1 (Herbicidal ratio of 5% or more and less than 20%) | 5 (Herbicidal ratio of 90% or more (almost completely withered)) | 3 (Herbicidal ratio of 40% or more and less than 70%) | 4 (Herbicidal ratio of 70% or more and less than 90%) | 0 (Herbicidal ratio of 5% or less (almost no effect)) | 5 (Herbicidal ratio of 90% or more (almost completely withered)) | 0 (Herbicidal ratio of 5% or less (almost no effect)) | 1 (Herbicidal ratio of 5% or more and less than 20%) | 4 (Herbicidal ratio of 70% or more and less than 90%) | 5 (Herbicidal ratio of 90% or more (almost completely withered)) | 5 (Herbicidal ratio of 90% or more (almost completely withered)) | 5 (Herbicidal ratio of 90% or more (almost completely withered)) | 0 (Herbicidal ratio of 5% or less (almost no effect)) | 3 (Herbicidal ratio of 40% or more and less than 70%) | 4 (Herbicidal ratio of 70% or more and less than 90%) | 4 (Herbicidal ratio of 70% or more and less than 90%) | 1 (Herbicidal ratio of 5% or more and less than 20%)
Cc1nnc2c(C(=O)Nc3nnnn3C)ccc(C(F)(F)F)n12 [2-002] | 1 (Herbicidal ratio of 5% or more and less than 20%) | 5 (Herbicidal ratio of 90% or more (almost completely withered)) | 4 (Herbicidal ratio of 70% or more and less than 90%) | 5 (Herbicidal ratio of 90% or more (almost completely withered)) | 1 (Herbicidal ratio of 5% or more and less than 20%) | 5 (Herbicidal ratio of 90% or more (almost completely withered)) | 3 (Herbicidal ratio of 40% or more and less than 70%) | 3 (Herbicidal ratio of 40% or more and less than 70%) | 4 (Herbicidal ratio of 70% or more and less than 90%) | 5 (Herbicidal ratio of 90% or more (almost completely withered)) | 5 (Herbicidal ratio of 90% or more (almost completely withered)) | 5 (Herbicidal ratio of 90% or more (almost completely withered)) | 1 (Herbicidal ratio of 5% or more and less than 20%) | 2 (Herbicidal ratio of 20% or more and less than 40%) | 5 (Herbicidal ratio of 90% or more (almost completely withered)) | 4 (Herbicidal ratio of 70% or more and less than 90%) | 2 (Herbicidal ratio of 20% or more and less than 40%)
